One test addresses T1, CDK5/p25 (Homo sapiens, UniProt Q00535).
T1 construct: purchased Invitrogen PR8543B
The test is described as follows: Enzymatic assay for CDK5 (LANCE Ultra kinase assay, FRET based). The class given is biochemical. The settings on record: ATP at Km. The method in brief:
(§1)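 Compounds tested as 8 doses in 4-fold steps against CDK2/Cyclin A ([…]) or CDK5/p25 ([…]), with ATP at its Km and 68 nM ULight-MBP substrate. After 60 min at 23° C., EDTA plus Eu-labelled anti-phospho-MBP added; TR-FRET (615/665 nm) read after another 60 min.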
In general terms: Time-resolved FRET reads energy transfer from a long-lived donor to a nearby acceptor.

Another test deals with T2, CDK2/Cyclin A (Homo sapiens, UniProt P24941).
T2 construct: purchased Invitrogen PV6290
The test is described as follows: Enzymatic assay for CDK2 (LANCE Ultra kinase assay, FRET based). The test is classed as biochemical. The note with it: ATP at Km. The essentials:
as §1

The target in the next test is T3, CDK1/Cyclin B (Homo sapiens, UniProt P06493).
T3 construct: purchased Invitrogen PR4768C
T3 sequence (P06493 whole entry): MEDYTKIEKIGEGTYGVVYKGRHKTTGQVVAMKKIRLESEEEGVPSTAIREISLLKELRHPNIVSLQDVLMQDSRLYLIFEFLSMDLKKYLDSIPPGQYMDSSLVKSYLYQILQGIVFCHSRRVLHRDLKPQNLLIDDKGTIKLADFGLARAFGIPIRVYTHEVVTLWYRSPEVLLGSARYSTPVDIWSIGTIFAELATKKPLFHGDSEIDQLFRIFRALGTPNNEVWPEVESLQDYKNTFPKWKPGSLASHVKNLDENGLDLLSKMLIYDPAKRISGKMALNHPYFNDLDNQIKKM
T3 sequence (P14635 whole entry partner): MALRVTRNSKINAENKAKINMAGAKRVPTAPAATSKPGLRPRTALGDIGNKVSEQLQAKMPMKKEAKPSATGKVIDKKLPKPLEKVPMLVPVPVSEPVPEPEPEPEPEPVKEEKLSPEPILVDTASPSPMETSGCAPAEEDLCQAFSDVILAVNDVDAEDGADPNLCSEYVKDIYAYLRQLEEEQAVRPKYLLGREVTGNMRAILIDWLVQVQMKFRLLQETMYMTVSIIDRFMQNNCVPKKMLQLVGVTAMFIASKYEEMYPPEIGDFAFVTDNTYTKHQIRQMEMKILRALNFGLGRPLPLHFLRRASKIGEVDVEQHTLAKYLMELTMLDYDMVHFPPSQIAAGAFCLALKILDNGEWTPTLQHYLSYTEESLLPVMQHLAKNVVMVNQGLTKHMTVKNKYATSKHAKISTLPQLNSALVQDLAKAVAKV
The test can be described thus: Enzymatic assay for CDK1 (LANCE Ultra kinase assay, FRET based). The test is classed as biochemical. The note with it: ATP at Km; read-out: CDK1 enzymatic activity IC50. The method in brief:
(§2)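 TR-FRET (LANCE Ultra) kinase assays with a ULight-labelled peptide substrate and a Europium-labelled anti-phospho antibody. ATP was set at its Km for each kinase. Inhibition was measured on purified CDK/cyclin complexes: CDK7/Cyclin H/MNAT1 and CDK1/Cyclin B.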

For another test, the system named is H460. The test is described as follows: Cellular H460 viability assay (CellTiter-Glo, 72 hours). The class given is cell-based. The note with it: Homo sapiens, NCI-H460; H460 cells. Here is the method:
All cell lines were routinely tested for mycoplasma.
To effect of the CDK7 inhibitor to inhibit the growth of target cancer cells, viability assay were conducted a 72 hour time period. Briefly, the candidate cell line was plated in 96 well plate at the following density of cells respectively. 1×10^4 cells/well for MV4-11, 5×10^3 for H460 and OVCAR-3, and 1×10^3 for A2780. […] DMSO solvent without compound served as a control and final DMSO concentration lest than 0.1%. After 72 hours of incubation at 37° C., 5% CO2 incubator, cells were analyzed for the viability using the CellTiter-Glo Luminescent Cell Viability Assay (Promega, Cat #G7570). All viability assays were performed in duplicate and Luminescence was read using an Envision (Perkin Elmer, USA). Data was analyzed using XLfit software.
(In general: Cellular ATP, detected with luciferase, serves as a proxy for viable cell number.)

The target in another test is T4, CDK7/Cyclin H/MNAT1 (Homo sapiens, UniProt P50613).
T4 construct: purchased Invitrogen PR6749B
T4 sequence (P50613 whole entry): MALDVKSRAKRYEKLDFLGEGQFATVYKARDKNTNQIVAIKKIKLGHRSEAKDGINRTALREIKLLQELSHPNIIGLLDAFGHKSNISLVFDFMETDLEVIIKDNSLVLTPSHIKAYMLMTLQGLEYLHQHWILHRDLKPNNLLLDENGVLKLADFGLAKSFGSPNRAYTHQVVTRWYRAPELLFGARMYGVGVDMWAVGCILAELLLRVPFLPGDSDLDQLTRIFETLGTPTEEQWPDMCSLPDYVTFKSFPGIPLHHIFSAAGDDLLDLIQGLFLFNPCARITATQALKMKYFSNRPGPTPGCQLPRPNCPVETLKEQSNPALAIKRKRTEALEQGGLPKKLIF
T4 sequence (P51946 whole entry partner): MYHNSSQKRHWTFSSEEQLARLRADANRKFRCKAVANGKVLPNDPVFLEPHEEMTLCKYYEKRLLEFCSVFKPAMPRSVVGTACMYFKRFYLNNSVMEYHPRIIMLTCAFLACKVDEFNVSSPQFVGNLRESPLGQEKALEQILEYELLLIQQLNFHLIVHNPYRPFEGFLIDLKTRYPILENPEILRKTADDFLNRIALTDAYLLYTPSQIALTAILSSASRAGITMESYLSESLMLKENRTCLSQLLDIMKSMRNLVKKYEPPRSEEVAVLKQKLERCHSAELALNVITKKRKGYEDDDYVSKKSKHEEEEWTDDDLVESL
T4 sequence (P51948 whole entry partner): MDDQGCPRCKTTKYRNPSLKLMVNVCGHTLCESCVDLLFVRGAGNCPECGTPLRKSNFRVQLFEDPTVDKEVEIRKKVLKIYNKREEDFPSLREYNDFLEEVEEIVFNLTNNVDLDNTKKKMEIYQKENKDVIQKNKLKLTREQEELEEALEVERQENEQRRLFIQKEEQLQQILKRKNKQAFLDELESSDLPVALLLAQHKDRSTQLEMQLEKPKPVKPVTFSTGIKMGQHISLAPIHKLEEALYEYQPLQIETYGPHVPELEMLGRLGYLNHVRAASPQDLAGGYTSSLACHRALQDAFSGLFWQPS
The test is described as follows: Enzymatic assay for CDK7 (LANCE Ultra kinase assay, FRET based). The class given is biochemical. The settings on record: for IC50: ATP at Km. The essentials: as §2

The IC50 is the midpoint of a concentration-inhibition curve.

Molecules are shown by their SMILES.

T1 sequence (Q00535 whole entry): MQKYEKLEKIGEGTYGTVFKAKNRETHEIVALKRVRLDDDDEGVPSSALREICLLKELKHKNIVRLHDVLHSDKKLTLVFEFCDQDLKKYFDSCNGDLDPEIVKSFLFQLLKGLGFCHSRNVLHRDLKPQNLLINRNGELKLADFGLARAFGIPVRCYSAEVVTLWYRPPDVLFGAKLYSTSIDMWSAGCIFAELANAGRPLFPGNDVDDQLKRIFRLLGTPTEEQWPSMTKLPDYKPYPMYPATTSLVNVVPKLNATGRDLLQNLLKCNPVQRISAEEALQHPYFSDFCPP
T1 sequence (Q15078 99-307 partner limits assumed): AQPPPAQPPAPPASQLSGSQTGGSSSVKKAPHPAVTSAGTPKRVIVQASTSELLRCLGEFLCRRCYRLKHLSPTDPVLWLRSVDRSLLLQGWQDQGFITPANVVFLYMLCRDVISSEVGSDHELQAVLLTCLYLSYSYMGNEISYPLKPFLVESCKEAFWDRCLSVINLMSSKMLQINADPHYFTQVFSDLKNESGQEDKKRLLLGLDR

With `CC(C)c1cnn2c(NCc3ccccc3OC3CCN(C(=O)/C=C/CN(C)C)CC3)nc(N3CCC(N)CC3)nc12` [Compound 6], the IC50 against CDK5/p25 is 100 to 1000 nM; against CDK2/Cyclin A, more than 1000 nM; at CDK1/Cyclin B it was more than 1000 nM; in the test on H460, less than 1000 nM; against CDK7/Cyclin H/MNAT1 it was less than 100 nM. Further, on CDK7/Cyclin H/MNAT1, the “CDK1/CDK7: Selectivity of CDK7 inhibition over CDK1 inhibition” value was “A (A indicates [fold] > 500)”. Further, the “CDK2/CDK7: Selectivity of CDK7 inhibition over CDK2 inhibition” value on CDK7/Cyclin H/MNAT1 is “A (A indicates [fold] > 500)”. At CDK7/Cyclin H/MNAT1, the “CDK5/CDK7: Selectivity of CDK7 inhibition over CDK5 inhibition” value was “C (C indicates [fold] ≤ 50)”.

For the compound `C=CC(=O)Nc1cccc(Oc2cccc(CNc3nc(N4CCC(N)CC4)nc4c(C(C)C)cnn34)c2)c1` [Compound 5], the IC50 is 100 to 1000 nM on CDK5/p25; 100 to 1000 nM against CDK2/Cyclin A; more than 1000 nM on CDK1/Cyclin B; less than 1000 nM with H460; less than 100 nM against CDK7/Cyclin H/MNAT1. Also, at CDK7/Cyclin H/MNAT1, the “CDK1/CDK7: Selectivity of CDK7 inhibition over CDK1 inhibition” value is “B (B indicates 50 < [fold] ≤ 500)”. The “CDK2/CDK7: Selectivity of CDK7 inhibition over CDK2 inhibition” value at CDK7/Cyclin H/MNAT1 is “B (B indicates 50 < [fold] ≤ 500)”. Besides, the “CDK5/CDK7: Selectivity of CDK7 inhibition over CDK5 inhibition” value at CDK7/Cyclin H/MNAT1 is “C (C indicates [fold] ≤ 50)”.

Turning to `CC(C)c1cnn2c(NCc3cccc(-c4cc5cc(NC(=O)/C=C/CN(C)C)ccc5[nH]4)c3)nc(N3CCC(N)CC3)nc12` [Compound 23], the IC50 was 100 to 1000 nM on CDK5/p25; more than 1000 nM at CDK2/Cyclin A; more than 1000 nM at CDK1/Cyclin B; 1000 to 10000 nM in the test on H460; less than 100 nM against CDK7/Cyclin H/MNAT1. For the same compound, the “CDK1/CDK7: Selectivity of CDK7 inhibition over CDK1 inhibition” value on CDK7/Cyclin H/MNAT1 was “B (B indicates 50 < [fold] ≤ 500)”. For the same compound, the “CDK2/CDK7: Selectivity of CDK7 inhibition over CDK2 inhibition” value on CDK7/Cyclin H/MNAT1 is “C (C indicates [fold] ≤ 50)”. At CDK7/Cyclin H/MNAT1, the “CDK5/CDK7: Selectivity of CDK7 inhibition over CDK5 inhibition” value was “C (C indicates [fold] ≤ 50)”.

In the case of `CC(C)c1cnn2c(NCc3cccc(Oc4ccc(Cl)c(NC(=O)/C=C/CN(C)C)c4)c3)nc(N3CCC(N)CC3)nc12` [Compound 15], the IC50 against CDK5/p25 is 100 to 1000 nM; against CDK2/Cyclin A, 100 to 1000 nM; on CDK1/Cyclin B, more than 1000 nM; in the test with H460, less than 1000 nM; against CDK7/Cyclin H/MNAT1 it was less than 100 nM. For the same compound, the “CDK1/CDK7: Selectivity of CDK7 inhibition over CDK1 inhibition” value on CDK7/Cyclin H/MNAT1 was “A (A indicates [fold] > 500)”. The “CDK2/CDK7: Selectivity of CDK7 inhibition over CDK2 inhibition” value at CDK7/Cyclin H/MNAT1 was “B (B indicates 50 < [fold] ≤ 500)”. Moreover, at CDK7/Cyclin H/MNAT1, the “CDK5/CDK7: Selectivity of CDK7 inhibition over CDK5 inhibition” value is “B (B indicates 50 < [fold] ≤ 500)”.

For `C=CC(=O)Nc1cccc(Oc2ccccc2CNc2nc(N3CCC(N)CC3)nc3c(C(C)C)cnn23)c1` [Compound 7], the IC50 is more than 1000 nM against CDK5/p25; more than 1000 nM at CDK2/Cyclin A; more than 1000 nM at CDK1/Cyclin B; less than 1000 nM in the test on H460; less than 100 nM against CDK7/Cyclin H/MNAT1. Moreover, the “CDK1/CDK7: Selectivity of CDK7 inhibition over CDK1 inhibition” value on CDK7/Cyclin H/MNAT1 is “A (A indicates [fold] > 500)”. Moreover, the “CDK2/CDK7: Selectivity of CDK7 inhibition over CDK2 inhibition” value at CDK7/Cyclin H/MNAT1 was “A (A indicates [fold] > 500)”. Also, the “CDK5/CDK7: Selectivity of CDK7 inhibition over CDK5 inhibition” value on CDK7/Cyclin H/MNAT1 was “B (B indicates 50 < [fold] ≤ 500)”.

For the compound `CC(C)c1cnn2c(NCc3cccc(Oc4ccc(F)c(NC(=O)/C=C/CN(C)C)c4)c3)nc(N3CCC(N)CC3)nc12` [Compound 13], in the test on H460, the IC50 was less than 1000 nM.

Compound `CC(C)c1cnn2c(NCc3ccccc3-c3nccc4c(NC(=O)/C=C/CN(C)C)cccc34)nc(N3CCC(N)CC3)nc12` [Compound 9] yielded an IC50 with H460 of 1000 to 10000 nM.
